Like-named read-outs stand apart in the source and are kept apart here.
Experiments:
cardiovascular system = test: Cardiovascular evaluation in telemetrized mini-pig; assay type: in vivo; settings: single oral dose 0, 50, 150 and 450 mg/kg, male Gottingen mini-pigs
Experimental: This study was conducted to evaluate the potential effects on the cardiovascular system of ACI-3024 when given as single dose to telemetrized Gottingen mini-pig.
Doses of 0, 50, 150 and 450 mg/kg were administered by oral gavage to 4 males/group. The dose volume was set at 5 mL/kg. The study was a randomized cross over design which consisted of four phases separated by seven days of wash out. In each phase each animal received as single administration of one selected doses. Through the phases each animal received all the dose levels once. ECG (heart rate, duration of the PR, QRS, QT, QTcF (QT interval corrected by Fridericia) and RR intervals (millisecond; ms), blood pressure (systolic, diastolic, and mean arterial pressure) and body temperature parameters through a transmitter implanted into the animals were continuously recorded starting from 30 minutes before dosing up to 20 hours after dose. Different timepoints during the recording period were sampled (−30 min (before dose) and 1 h, 2 h, 4 h, 6 h, 8 h, 12 h and 20 h (after dose)), per each timepoint 5-minute segment was used for study purposes.

[1] = Pharmacokinetics in SAD and MAD studies (plasma, urine); assay type: in vivo
Experimental: Secondary Objectives: • To assess the PK of ACI-3024 in plasma, urine, and cerebrospinal fluid (CSF). • To compare the plasma and urine PK parameters of ACI-3024 following single oral doses in the fed and fasting states.
In each of Cohorts S1 to S5, 6 subjects (including 3 Japanese subjects in Cohorts S2 through S5) received ACI-3024 and 2 subjects (including 1 Japanese subject in Cohorts S2 through S5) received placebo. All doses were administered in the fasting state in accordance with a randomization schedule on the morning of Day 1, except for subjects in the food-effect cohort (Cohort S4), who were dosed 30 minutes after starting a high-fat breakfast in Treatment Period 2 only. Each subject received only a single dose of ACI-3024 or placebo during the study, except for subjects in the food effect cohort, who received a single dose of ACI-3024 or placebo in the fasting state followed by a single dose of ACI-3024 in the fed state. Thus, subjects in Cohort S4 received either 2 identical doses of ACI-3024 (6 subjects) or 1 dose of placebo and 1 dose of ACI-3024 (2 subjects). Six subjects of Cohort S4 received 750 mg dose of ACI-3024 and 2 subjects received placebo. After a period of wash-up all 8 subjects of Cohort S4 received a fat-breakfast and a 750 mg dose of ACI-3024.
Cohorts MAD-HV1 to MAD-HV3 comprised 10 elderly non-Japanese male or female subjects, 8 were treated with ACI-3024 and 2 were being given placebo. Cohort MAD-HV4 comprised 5 non-elderly Japanese subjects (4 treated with ACI-3024 and 1 given placebo) and 5 […] (4 treated with ACI-3024 and 1 given placebo). Only subjects from MAD HV3 cohort underwent CSF samplings to explore the CSF inflammatory markers, CSF PK, and CSF PD of ACI-3024. For all subjects, dosing was on […], inclusive, and a final single dose administration occurred on […]. Dose in cohort MAD HV1 was 500 mg of ACI-3024 or placebo, QD, fasted. Dose in cohorts MAD HV2 and MAD HV4 was 500 mg of ACI-3024 or placebo, BID (“bis in die” ie., twice a day), fed. Dose in cohort MAD HV3 was 1400 mg of ACI-3024 or placebo, QD (“quaque die” (once a day), fed.

[2] = Toxicokinetics in the 4-week mini-pig toxicity study; assay type: in vivo; settings: for AUC(0-t) / Cmax / Tmax: Gottingen, minipig, plasma, Day 28, 450 mg/kg oral
Experimental: Doses tested, 50, 150 and 450 mg/kg were given by p.o. to 3 animals/sex/group daily. The control animals were administered vehicle. The dose volume was 5 mL/kg for all groups.
Toxico Kinetic (TK) was evaluated on all animals on study Day 1 and Day 28 at different time points.

respiratory function = test: Respiratory function evaluation in mice (whole body plethysmography); assay type: in vivo, mouse; settings: single oral administration 100, 300 and 750 mg/kg, conscious female mice
Experimental: This study was conducted to evaluate the potential modifications of respiratory function by ACI-3024 when given as single dose to CD1 mice.
Doses of 100, 300 and 750 mg/kg were administered by oral gavage to 8 females/group. The control animals were administered vehicle. The dose volume was 10 mL/kg for all groups. Animals underwent a whole body plethysmography carried out starting 30 minutes before dosing up to 5 hours after; moreover, a subsequent 1-hour registration was conducted 24 hours post dose.

[3] = test system: Tg4510 transgenic mouse model; test: Studies of ACI-3024 in the Tg4510 transgenic mouse model (CSF target level); assay type: in vivo; settings: derived from studies in Tg4510 transgenic mouse model
Experimental: The present invention is directed to a compound ACI-3024 for use in the treatment, prevention or alleviation of a disorder or an abnormality associated with Tau protein aggregates or a tauopathy comprising administering said compound at an amount up to or equal to 1500 mg/day to a human subject in need thereof wherein the compound ACI-3024 is constantly present in the human subject CSF at a concentration above or equal to 30 nM level at predose, preferably above or equal to 90 nM level at predose. The predefined predose level of ACI-3024 of 30 nM is derived from studies of ACI-3024 in the Tg4510 transgenic mouse model which reflects the clinical manifestation of tauopathies and determines the minimum concentration of the compound in the CSF necessary to achieve clinical efficacy before another dose of the same compound is given (ie a threshold value below which efficacy would be lost). Preferably, the compound ACI-3024 is present in the human subject CSF at a concentration above or equal to 30 nM, preferably above or equal to 90 nM, during the treatment.

[4] = statistical assessment, healthy volunteers
[5] = both sexes, average M/F minipigs

Fc1ccc2c3c([nH]c2c1)CCN(c1ccc2oc(N4CCOCC4)nc2c1)C3 [ACI-3024]
effect on cardiovascular parameters and body temperature (cardiovascular system): no effect
Tmax ([1]; both sexes, human, plasma, oral, fasting state, single or multiple doses, read-out: median time of maximum observed plasma concentration (Tmax)): 1.25 to 2.5 h
half-life ([1]; both sexes, human, plasma, oral, following 14 days of multiple dosing, when calculable, read-out: geometric mean t1/2): 47.5 to 101 h
food effect on rate of absorption ([1]; fed vs fasting state): reduced the rate of absorption
food effect: increase of overall exposure ([1]; fed vs fasting state): approximately 3 fold
excretion in urine ([1]; healthy volunteers): Only a small amount
half-life ([1]; human, plasma, oral, humans, read-out: plasma half-life): > 24 h
half-life ([1]; male, human, plasma, oral, following single dose administration, read-out: geometric mean t1/2): 27.7 to 60.5 h
accumulation ([1]; multiple dosing, QD or BID regimen): evidence of accumulation
dose proportionality of AUC0-tlast and AUC0-∞ [1, 4]: dose-proportional increase
dose proportionality of Cmax [1, 4]: subproportional increase
dose proportionality of plasma exposure ([2]; 50 to 450 mg/kg, except males on Day 1): approximately dose-proportionally
AUC(0-t) ([2]; female minipigs): 101 µg·h/mL
Cmax ([2]; female minipigs): 7350 ng/mL
Tmax ([2]; female minipigs): 4 h
AUC(0-t) ([2]; male minipigs): 233 µg·h/mL
Cmax ([2]; male minipigs): 12300 ng/mL
Tmax ([2]; male minipigs): 6 h
AUC(0-t) [2, 5]: 167 µg·h/mL
Cmax [2, 5]: 9840 ng/mL
Tmax [2, 5]: 5 h
effect on respiratory parameters (respiratory function): did not exert effect
minimum predose CSF level necessary for efficacy (target) [3]: 30 nM
